Results published in ChEMBL document CHEMBL5634113, “Synthesis, cytotoxic activity evaluation and mechanistic investigation of novel 3,7-diarylsubstituted 6-azaindoles” (Eur J Med Chem, 2023).
Structures can show the parent of a compound that is named as a salt. Calls of active or inactive are those of the source. The calls are words filed in the database; no cut-off is given here.

Legend:
A-431 [1] = assay: Cytotoxicity against human A-431 cells assessed as inhibition of cell growth incubated for 72 hrs by MTT assay; assay type: functional, cell-based; settings: A-431, 72 h
[2] = Cytotoxicity against human AG1523 cells assessed as inhibition of cell growth incubated for 72 hrs by MTT assay; assay type: toxicity, cell-based
MCF7 = assay: Cytotoxicity against human MCF7 cells assessed as inhibition of cell growth incubated for 72 hrs by MTT assay; assay type: functional, cell-based; settings: MCF7, 72 h
MDA-MB-231 = assay: Cytotoxicity against human MDA-MB-231 cells assessed as inhibition of cell growth incubated for 72 hrs by MTT assay; assay type: functional, cell-based; settings: MDA-MB-231, 72 h
HT-1080 = assay: Cytotoxicity against human HT-1080 cells assessed as inhibition of cell growth incubated for 72 hrs by MTT assay; assay type: functional, cell-based; settings: HT-1080, 72 h
A-431 [3] = assay: Induction of cell cycle arrest in human A-431 cells assessed as accumulation of cells at G0/G1 phase at 100 nM incubated for 24 hrs by RNase/PI staining based flow cytometry analysis (reference value: 40.98%); assay type: functional
[4] = molecular target: Signal transducer and activator of transcription 3 (Homo sapiens) (UniProt P40763); assay: Inhibition of STAT3 phosphorylation at Ser727 residue in human A-431 cells at IC50 measured after 0 to 24 hrs by multiplex immunoassay; assay type: cell-based; settings: time 0-24 hrs
A-431 [5] = assay: Genotoxicity in human A-431 cells assessed as upregulation of phosphorylated Chk2 at Thr68 residue protein level at IC50 measured after 0 to 24 hrs by multiplex immunoassay; assay type: functional, cell-based; settings: time 0-24 hrs
[6] = molecular target: Cellular tumor antigen p53 (Homo sapiens) (UniProt P04637); assay: Activation of p53 in human A-431 cells assessed as increase in p53 phosphorylation at Ser15 residue at IC50 measured after 0 to 24 hrs by Western blot analysis; assay type: cell-based; settings: filed as activator, time 0-24 hrs
A-431 [7] = assay: Induction of cell cycle arrest in human A-431 cells assessed as accumulation of cells at Sub-diploid phase at 100 nM incubated for 24 hrs by RNase/PI staining based flow cytometry analysis (reference value: 1.82%); assay type: functional
[8] = molecular target: Cyclin-dependent kinase inhibitor 1 (Homo sapiens) (UniProt P38936); assay: Activation of p21 waf1 in human A-431 cells assessed as increase in p21 waf1 protein level at IC50 measured after 0 to 24 hrs by Western blot analysis; assay type: cell-based; settings: filed as activator, time 0-24 hrs
A-431 [9] = assay: Induction of cell cycle arrest in human A-431 cells assessed as accumulation of cells at G2/M phase at 100 nM incubated for 24 hrs by RNase/PI staining based flow cytometry analysis (reference value: 15.66%); assay type: functional
A-431 [10] = assay: Genotoxicity in human A-431 cells assessed as upregulation of MDM2 total protein level at IC50 measured after 0 to 24 hrs by multiplex immunoassay; assay type: functional, cell-based; settings: time 0-24 hrs
[11] = molecular target: Mitogen-activated protein kinase 3 (Homo sapiens) (UniProt P27361); assay: Inhibition of ERK1 phosphorylation at Thr202/Tyr204 residues in human A-431 cells at IC50 measured after 0 to 24 hrs by multiplex immunoassay; assay type: cell-based; settings: time 0-24 hrs
[12] = molecular target: Dual specificity mitogen-activated protein kinase kinase 1 (Homo sapiens) (UniProt Q02750); assay: Inhibition of MEK1 phosphorylation at Ser217/Ser221 residues in human A-431 cells at IC50 measured after 0 to 24 hrs by multiplex immunoassay; assay type: cell-based; settings: time 0-24 hrs
A-431 [13] = assay: Cytotoxicity against human A-431 cells assessed as increase in mitotic nuclei measured after 6 to 24 hrs by DAPI staining based analysis; assay type: functional, cell-based; settings: time 6-24 hrs
A-431 [14] = assay: Genotoxicity in human A-431 cells assessed as upregulation of p21 total protein level at IC50 measured after 0 to 24 hrs by multiplex immunoassay; assay type: functional, cell-based; settings: time 0-24 hrs
A-431 [15] = assay: Genotoxicity in human A-431 cells assessed as upregulation of ATR total protein level at IC50 measured after 0 to 24 hrs by multiplex immunoassay; assay type: functional, cell-based; settings: time 0-24 hrs
A-431 [16] = assay: Genotoxicity in human A-431 cells assessed as upregulation of phosphorylated Chk1 at Ser345 residue protein level at IC50 measured after 0 to 24 hrs by multiplex immunoassay; assay type: functional, cell-based; settings: time 0-24 hrs
[17] = molecular target: Ribosomal protein S6 kinase alpha-1 (Homo sapiens) (UniProt Q15418); assay: Inhibition of p90 RSK phosphorylation at Ser380 residue in human A-431 cells at IC50 measured after 0 to 24 hrs by multiplex immunoassay; assay type: cell-based; settings: time 0-24 hrs
A-431 [18] = assay: Induction of cell cycle arrest in human A-431 cells assessed as accumulation of cells at S phase at 100 nM incubated for 24 hrs by RNase/PI staining based flow cytometry analysis (reference value: 43.35%); assay type: functional
A-431 [19] = assay: Genotoxicity in human A-431 cells assessed as upregulation of phosphorylated p53 at Ser15 residue protein level at IC50 measured after 0 to 24 hrs by multiplex immunoassay; assay type: functional, cell-based; settings: time 0-24 hrs
[20] = molecular target: Mitogen-activated protein kinase 1 (Homo sapiens) (UniProt P28482); assay: Inhibition of ERK2 phosphorylation at Thr185/Tyr187 residues in human A-431 cells at IC50 measured after 0 to 24 hrs by multiplex immunoassay; assay type: cell-based; settings: time 0-24 hrs
Sequence of Mitogen-activated protein kinase 1 (Homo sapiens) (P28482 whole entry): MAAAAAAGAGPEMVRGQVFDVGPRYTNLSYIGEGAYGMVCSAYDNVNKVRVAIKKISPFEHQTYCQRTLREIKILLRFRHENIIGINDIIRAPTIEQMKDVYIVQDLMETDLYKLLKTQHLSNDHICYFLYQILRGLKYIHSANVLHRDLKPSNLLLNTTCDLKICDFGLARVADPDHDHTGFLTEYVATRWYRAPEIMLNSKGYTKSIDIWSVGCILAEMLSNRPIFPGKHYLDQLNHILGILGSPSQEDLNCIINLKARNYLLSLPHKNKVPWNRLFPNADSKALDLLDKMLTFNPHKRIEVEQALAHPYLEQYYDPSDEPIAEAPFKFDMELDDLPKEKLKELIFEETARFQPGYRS

Sequence of Cellular tumor antigen p53 (Homo sapiens) (P04637 whole entry, looked up): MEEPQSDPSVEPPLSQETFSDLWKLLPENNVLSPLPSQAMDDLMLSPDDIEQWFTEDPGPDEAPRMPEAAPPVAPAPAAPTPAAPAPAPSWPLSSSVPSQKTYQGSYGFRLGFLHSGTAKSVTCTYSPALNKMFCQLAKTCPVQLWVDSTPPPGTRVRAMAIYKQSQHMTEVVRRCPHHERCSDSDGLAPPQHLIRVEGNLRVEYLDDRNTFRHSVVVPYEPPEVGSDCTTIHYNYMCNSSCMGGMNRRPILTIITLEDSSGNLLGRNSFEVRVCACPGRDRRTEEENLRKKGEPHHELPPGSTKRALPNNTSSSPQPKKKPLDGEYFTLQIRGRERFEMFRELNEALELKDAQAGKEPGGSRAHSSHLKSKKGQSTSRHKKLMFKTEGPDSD
Sequence of Mitogen-activated protein kinase 3 (Homo sapiens) (P27361 whole entry): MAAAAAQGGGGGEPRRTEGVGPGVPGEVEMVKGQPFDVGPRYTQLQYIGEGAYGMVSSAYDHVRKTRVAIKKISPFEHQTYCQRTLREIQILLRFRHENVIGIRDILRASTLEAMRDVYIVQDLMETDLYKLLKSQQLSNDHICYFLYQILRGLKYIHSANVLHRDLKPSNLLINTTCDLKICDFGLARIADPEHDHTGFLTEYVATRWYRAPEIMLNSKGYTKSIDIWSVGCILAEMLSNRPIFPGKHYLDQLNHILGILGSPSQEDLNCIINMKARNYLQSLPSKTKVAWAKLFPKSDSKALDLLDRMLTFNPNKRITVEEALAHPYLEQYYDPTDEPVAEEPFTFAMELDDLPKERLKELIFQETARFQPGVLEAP
Sequence of Signal transducer and activator of transcription 3 (Homo sapiens) (P40763 whole entry): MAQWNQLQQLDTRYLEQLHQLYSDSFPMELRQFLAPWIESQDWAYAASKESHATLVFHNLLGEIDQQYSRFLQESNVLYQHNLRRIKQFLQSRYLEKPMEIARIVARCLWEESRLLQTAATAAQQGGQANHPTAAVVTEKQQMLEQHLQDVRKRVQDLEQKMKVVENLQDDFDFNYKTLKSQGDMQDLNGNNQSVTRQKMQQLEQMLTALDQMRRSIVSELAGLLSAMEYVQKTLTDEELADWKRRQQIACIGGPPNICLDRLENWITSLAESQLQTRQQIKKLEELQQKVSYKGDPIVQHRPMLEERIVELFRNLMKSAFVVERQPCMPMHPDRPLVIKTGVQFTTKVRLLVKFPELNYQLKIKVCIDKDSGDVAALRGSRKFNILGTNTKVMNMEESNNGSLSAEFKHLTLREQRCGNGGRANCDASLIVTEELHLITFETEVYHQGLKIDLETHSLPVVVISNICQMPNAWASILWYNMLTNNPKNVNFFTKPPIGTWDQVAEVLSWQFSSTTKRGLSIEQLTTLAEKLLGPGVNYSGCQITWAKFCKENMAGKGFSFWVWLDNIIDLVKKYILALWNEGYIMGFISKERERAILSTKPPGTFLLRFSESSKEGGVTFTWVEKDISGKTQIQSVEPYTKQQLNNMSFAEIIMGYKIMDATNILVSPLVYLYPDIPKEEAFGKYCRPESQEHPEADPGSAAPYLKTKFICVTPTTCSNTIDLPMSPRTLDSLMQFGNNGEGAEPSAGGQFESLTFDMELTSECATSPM
Sequence of Cyclin-dependent kinase inhibitor 1 (Homo sapiens) (P38936 whole entry): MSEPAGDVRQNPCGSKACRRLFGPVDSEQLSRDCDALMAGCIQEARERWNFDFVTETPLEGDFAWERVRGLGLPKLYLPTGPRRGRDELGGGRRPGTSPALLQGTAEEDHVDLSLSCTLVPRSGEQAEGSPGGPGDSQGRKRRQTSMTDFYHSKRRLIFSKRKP
Sequence of Dual specificity mitogen-activated protein kinase kinase 1 (Homo sapiens) (Q02750 whole entry): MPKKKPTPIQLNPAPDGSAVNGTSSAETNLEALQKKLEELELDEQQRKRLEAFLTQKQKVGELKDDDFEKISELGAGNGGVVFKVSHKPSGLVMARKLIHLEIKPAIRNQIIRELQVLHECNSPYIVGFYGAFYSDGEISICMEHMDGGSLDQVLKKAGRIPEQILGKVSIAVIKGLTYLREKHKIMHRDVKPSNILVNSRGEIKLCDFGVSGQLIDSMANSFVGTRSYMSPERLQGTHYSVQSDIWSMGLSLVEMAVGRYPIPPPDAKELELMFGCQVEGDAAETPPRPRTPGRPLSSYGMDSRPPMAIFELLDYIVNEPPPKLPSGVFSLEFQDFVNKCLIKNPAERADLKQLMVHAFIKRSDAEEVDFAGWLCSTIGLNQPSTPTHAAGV
Sequence of Ribosomal protein S6 kinase alpha-1 (Homo sapiens) (Q15418 whole entry): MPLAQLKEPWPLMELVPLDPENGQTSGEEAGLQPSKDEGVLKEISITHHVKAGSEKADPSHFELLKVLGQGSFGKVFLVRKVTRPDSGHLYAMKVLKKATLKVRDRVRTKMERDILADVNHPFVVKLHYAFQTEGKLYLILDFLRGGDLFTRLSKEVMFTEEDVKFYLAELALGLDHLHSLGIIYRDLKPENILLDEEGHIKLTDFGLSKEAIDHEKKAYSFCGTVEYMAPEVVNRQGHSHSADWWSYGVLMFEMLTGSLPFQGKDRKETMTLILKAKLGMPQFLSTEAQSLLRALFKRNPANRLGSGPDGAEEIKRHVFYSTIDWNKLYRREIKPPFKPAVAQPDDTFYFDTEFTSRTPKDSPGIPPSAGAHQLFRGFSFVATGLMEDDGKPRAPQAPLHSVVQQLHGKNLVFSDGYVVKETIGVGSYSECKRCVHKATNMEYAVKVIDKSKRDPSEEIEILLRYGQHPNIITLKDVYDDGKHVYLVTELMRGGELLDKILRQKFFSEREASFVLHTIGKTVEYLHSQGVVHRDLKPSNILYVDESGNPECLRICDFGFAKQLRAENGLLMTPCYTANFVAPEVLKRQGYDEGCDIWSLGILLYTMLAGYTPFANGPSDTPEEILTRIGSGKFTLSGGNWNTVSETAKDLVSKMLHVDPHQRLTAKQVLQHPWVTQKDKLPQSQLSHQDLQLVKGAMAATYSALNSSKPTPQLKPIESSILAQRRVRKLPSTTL

SMILES	IC50 (A-431 [1])	IC50 at 72 h [2]	IC50 (MCF7)	IC50 (MDA-MB-231)	IC50 (HT-1080)	also measured
Fc1cccc(-c2c[nH]c3c(-c4ccc(Cl)cc4)nccc23)c1	0.11 µM	78.6 µM	0.41 µM	0.13 µM	0.087 µM	–
COc1ccc(Cn2cc(-c3cccc(F)c3)c3ccnc(-c4ccccc4)c32)cc1	9 µM	> 100 µM	12.9 µM	49.8 µM	14.1 µM	–
CC(=O)c1ccc(-c2nccc3c(-c4cccc(F)c4)c[nH]c23)cc1	0.42 µM	> 100 µM	0.81 µM	0.42 µM	0.47 µM	–
COc1ccc(Cn2cc(-c3cccc(F)c3)c3ccnc(-c4ccc(OC)cc4OC)c32)cc1	5.32 µM	> 100 µM	11.4 µM	18.1 µM	8.61 µM	–
COc1ccc(Cn2cc(-c3ccccc3)c3ccnc(-c4cccc([N+](=O)[O-])c4)c32)cc1	> 100 µM	> 100 µM	> 100 µM	> 100 µM	> 100 µM	–
O=[N+]([O-])c1cccc(-c2nccc3c(-c4cccc(F)c4)c[nH]c23)c1	2.5 µM	49 µM	4.39 µM	5.12 µM	0.82 µM	–
COc1ccc(-c2nccc3c(-c4cccc(F)c4)c[nH]c23)c(OC)c1	0.013 µM	56.3 µM	0.14 µM	0.018 µM	0.014 µM	Activity (A-431 [3]): 33%; inhibition [4]: Active; Activity (A-431 [5]): Active; Activity [6]: Active; Activity (A-431 [7]): 29.86%; Activity [8]: Active; Activity (A-431 [9]): 54.04%; Activity (A-431 [10]): Active; inhibition [11]: Active; inhibition [12]: Active; Activity (A-431 [13]): Active; Activity (A-431 [14]): Active; Activity (A-431 [15]): Active; Activity (A-431 [16]): Active; inhibition [17]: Active; Activity (A-431 [18]): 12.97%; Activity (A-431 [19]): Active; inhibition [20]: Active
COc1ccc(Cn2cc(-c3cccc(F)c3)c3ccnc(-c4ccc(Cl)cc4)c32)cc1	14.3 µM	> 100 µM	73.3 µM	> 100 µM	> 100 µM	–
COc1ccc(Cn2cc(-c3cccc(F)c3)c3ccnc(-c4cccc([N+](=O)[O-])c4)c32)cc1	> 100 µM	> 100 µM	> 100 µM	> 100 µM	> 100 µM	–
COc1ccc(Cn2cc(-c3ccccc3)c3ccnc(-c4ccccc4)c32)cc1	9.89 µM	> 100 µM	13.4 µM	22.5 µM	13.1 µM	–
Clc1ccc(-c2nccc3c(-c4ccccc4)c[nH]c23)cc1	0.02 µM	> 100 µM	0.35 µM	0.051 µM	0.056 µM	Activity (A-431 [3]): 20.59%; Activity (A-431 [7]): 33.54%; Activity (A-431 [9]): 39.73%; Activity (A-431 [18]): 39.69%
Fc1cccc(-c2c[nH]c3c(-c4ccccc4)nccc23)c1	1.6 µM	> 100 µM	2.29 µM	3.65 µM	3.15 µM	–
COc1ccc(Cn2cc(-c3ccccc3)c3ccnc(-c4ccc(Cl)cc4)c32)cc1	10.8 µM	> 100 µM	40.8 µM	> 100 µM	25.8 µM	–
CC(=O)c1ccc(-c2nccc3c(-c4ccccc4)c[nH]c23)cc1	0.1 µM	> 100 µM	0.64 µM	0.27 µM	0.52 µM	Activity (A-431 [3]): 14.74%; Activity (A-431 [7]): 39.37%; Activity (A-431 [9]): 64.95%; Activity (A-431 [18]): 20.32%
COc1cccc2c1C(=O)c1c(O)c3c(c(O)c1C2=O)C[C@@](O)(C(=O)CO)C[C@@H]3O[C@H]1C[C@H](N)[C@H](O)[C@H](C)O1 [DOXORUBICIN HYDROCHLORIDE]	0.009 µM	–	0.144 µM	0.096 µM	0.007 µM	–
COc1ccc(-c2nccc3c(-c4ccccc4)c[nH]c23)c(OC)c1	0.012 µM	79.8 µM	0.1 µM	0.017 µM	0.012 µM	Activity (A-431 [3]): 26.41%; Activity (A-431 [7]): 40.02%; Activity (A-431 [9]): 63.32%; Activity (A-431 [18]): 10.27%
COc1ccc(Cn2cc(-c3cccc(F)c3)c3ccnc(-c4ccc(C(C)=O)cc4)c32)cc1	13 µM	> 100 µM	9.7 µM	89.2 µM	13.4 µM	–
COc1ccc(Cn2cc(-c3ccccc3)c3ccnc(-c4ccc(OC)cc4OC)c32)cc1	6.2 µM	> 100 µM	10.3 µM	15.8 µM	7.67 µM	–
c1ccc(-c2c[nH]c3c(-c4ccccc4)nccc23)cc1	0.54 µM	85.1 µM	2.48 µM	1.51 µM	0.79 µM	–
O=[N+]([O-])c1cccc(-c2nccc3c(-c4ccccc4)c[nH]c23)c1	2.6 µM	> 100 µM	3.34 µM	4.39 µM	3.06 µM	–
COc1ccc(Cn2cc(-c3ccccc3)c3ccnc(-c4ccc(C(C)=O)cc4)c32)cc1	> 100 µM	> 100 µM	24.5 µM	> 100 µM	41.6 µM	–
